Assay results: US20230126992A1, “Antibacterial Antiviral Pharmaceutical Composition and Application Thereof” (priority 2020, published 2023)
Several values for one entry are separate records, joined by “and”; a condition that tells them apart may be missing. Equal entries are not always repeated. Structures can show the parent of a compound that is named as a salt. Where two headings read alike, the source gives them in different places.

Tests used:
SARS-CoV-2 [1] = test: Test of direct killing of virus; assay type: cell-based
SARS-CoV-2 [2] = conditions: for Inhibition rate to SARS-CoV-2 induced cell death: drug 1 hour after infection
Vero E6 cells = test: Toxicity test to Vero E6 cells (CCK8); conditions: 3 days
SARS-CoV-2 [3] = test: microbe, parasite or virus in culture
SARS-CoV-2 [4] = test: Inhibition of Vero E6 cell death induced by SARS-CoV-2, simultaneous addition of drug and virus; conditions: for Inhibition rate to SARS-CoV-2 induced cell death: simultaneous addition
[5] = tested on: tracheal excretion of phenol red of mice; test: Tracheal excretion of phenol red in mice; conditions: dose 30 mg/kg intragastric, 7 days; 546 nm
[6] = tested on: asthma of guinea pigs induced by acetylcholine and histamine phosphate; test: Asthmatic guinea pigs induced by acetylcholine combined with histamine phosphate (Example 3)
[7] = tested on: asthma of guinea pigs induced by acetylcholine and histamine phosphate; test: Asthmatic guinea pigs induced by acetylcholine combined with histamine phosphate (Example 9)
[8] = tested on: LPS-induced fever in rats; test: LPS induced rat fever model; conditions: dose 200 mg/kg
[9] = tested on: capillary discharge sputum volume in rats; test: Capillary discharge sputum volume in rats (Example 3); conditions: dose 200 mg/kg intragastric, 7 days; 2 h collection
[10] = tested on: capillary discharge sputum volume in rats; test: Capillary discharge sputum volume in rats (Example 9); conditions: dose 0.2 g/kg intragastric, 7 days
acute pharyngitis rats = test: Acute pharyngitis model in rat, serum IL-6 and TNF-α by ELISA; conditions: dose 5 mg/kg, 3 days
influenza virus FM1 [11] = assay type: in vivo, ICR mice
influenza virus FM1 [12] = assay type: in vivo, ICR mice; conditions: dose 27.5 mg/kg, 7 days
influenza virus FM1 [13] = assay type: in vivo, ICR mice; conditions: dose 27.5 mg/kg
[14] = tested on: concentrated ammonia water induced cough in mice; test: Concentrated ammonia water induced cough test in mice (Example 3); assay type: in vivo, ICR mice; conditions: dose 20 mg/kg intragastric, 7 d
[15] = tested on: concentrated ammonia water induced cough in mice; test: Concentrated ammonia water induced cough test in mice (Example 9, dropping pills); assay type: in vivo, ICR mice; conditions: dose 0.02 g/kg intragastric, 7 days
[16] = addition of the drug after infection
[17] = concentration 0.064 μM, 0.064 µM
[18] = simultaneous addition of the drug and virus
[19] = dose 60 mg/kg intragastric, 7 d
[20] = dose 0.06 g/kg intragastric, 7 days
[21] = lung tissue homogenate, dose 27.5

OO [Example H2O2, H2O2]
Inhibition rate (killing effect) (SARS-CoV-2 [1]; 0.01% incubated with virus 0 min): 82.13 ± 8.64% and 92.94 ± 6.31% | Inhibition rate (killing effect) (SARS-CoV-2 [1]; 0.01% incubated with virus 5 min): 98.16 ± 18.42% and 99.25 ± 2.95% | Inhibition rate (killing effect) (SARS-CoV-2 [1]; 0.01% incubated with virus 10 min): 89.87 ± 7.26% and 98.25 ± 2.36% | Inhibition rate (killing effect) (SARS-CoV-2 [1]; 0.01% incubated with virus 30 min): 102.74 ± 8.56% and 102.50 ± 14.39% | Inhibition rate (killing effect) (SARS-CoV-2 [1]; 0.01% incubated with virus 60 min): 95.28 ± 10.93% and 101.35 ± 11.45%

CCC(CC)COC(=O)[C@H](C)N[P@](=O)(OC[C@H]1O[C@@](C#N)(c2ccc3c(N)ncnn23)[C@H](O)[C@@H]1O)Oc1ccccc1 [Remdesivir]
IC50 (SARS-CoV-2 [2]; [16]): 734 nM and 915 nM | TI (CC50/IC50) (SARS-CoV-2 [2]; [16]): > 242.42 | Inhibition rate to SARS-CoV-2 induced cell death (SARS-CoV-2 [2]; [17]): 6.51 ± 7.08% | Inhibition rate to SARS-CoV-2 induced cell death (SARS-CoV-2 [2]; concentration 0.32 μM, 0.32 µM): 28.39 ± 11.56% | Inhibition rate to SARS-CoV-2 induced cell death (SARS-CoV-2 [2]; concentration 1.6 μM, 1.6 µM): 53.50 ± 3.37% | Inhibition rate to SARS-CoV-2 induced cell death (SARS-CoV-2 [2]; concentration 8 μM, 8 µM): 92.29 ± 6.68% | Inhibition rate to SARS-CoV-2 induced cell death (SARS-CoV-2 [2]; concentration 40 μM, 40 µM): 94.31 ± 5.01% | Inhibition rate to SARS-CoV-2 induced cell death (SARS-CoV-2 [2]; concentration 200 μM, 200 µM): 98.83 ± 2.97% | Cell survival rate (Vero E6 cells; concentration 0.064 μM): 101.58 ± 3.33% and 95.44 ± 10.01% | Cell survival rate (Vero E6 cells; concentration 0.32 μM): 99.55 ± 10.53% and 93.59 ± 6.96% | Cell survival rate (Vero E6 cells; concentration 1.6 μM): 91.37 ± 10.73% and 98.11 ± 7.16% | Cell survival rate (Vero E6 cells; concentration 8 μM): 87.35 ± 4.25% and 90.08 ± 1.88% | Cell survival rate (Vero E6 cells; concentration 40 μM): 76.24 ± 8.59% and 77.22 ± 11.23% | Cell survival rate (Vero E6 cells; concentration 200 μM): 53.84 ± 3.48% and 71.58 ± 3.12% | inhibition at 0.064 µM (SARS-CoV-2 [3]; Severe acute respiratory syndrome coronavirus 2, Vero C1008, 1 h, read-out: Inhibition rate to SARS-CoV-2 induced cell death, drug 1 hour after infection, concentration 0.064 μM): 7.48 ± 11.8% | inhibition at 0.32 µM (SARS-CoV-2 [3]; Severe acute respiratory syndrome coronavirus 2, Vero C1008, 1 h, read-out: Inhibition rate to SARS-CoV-2 induced cell death, drug 1 hour after infection, concentration 0.32 μM): 46.3 ± 15.2% | inhibition at 1.6 µM (SARS-CoV-2 [3]; Severe acute respiratory syndrome coronavirus 2, Vero C1008, 1 h, read-out: Inhibition rate to SARS-CoV-2 induced cell death, drug 1 hour after infection, concentration 1.6 μM): 61.5 ± 6.96% | inhibition at 8 µM (SARS-CoV-2 [3]; Severe acute respiratory syndrome coronavirus 2, Vero C1008, 1 h, read-out: Inhibition rate to SARS-CoV-2 induced cell death, drug 1 hour after infection, concentration 8 μM): 73.4 ± 3.67% | inhibition at 40 µM (SARS-CoV-2 [3]; Severe acute respiratory syndrome coronavirus 2, Vero C1008, 1 h, read-out: Inhibition rate to SARS-CoV-2 induced cell death, drug 1 hour after infection, concentration 40 μM): 91.2 ± 9.91% | inhibition at 200 µM (SARS-CoV-2 [3]; Severe acute respiratory syndrome coronavirus 2, Vero C1008, 1 h, read-out: Inhibition rate to SARS-CoV-2 induced cell death, drug 1 hour after infection, concentration 200 μM): 100 ± 9.98% | IC50 (SARS-CoV-2 [3]; Severe acute respiratory syndrome coronavirus 2, Vero C1008, addition of the drug after infection): 825 ± 128 nM | inhibition at 0.32 µM (SARS-CoV-2 [4]; Severe acute respiratory syndrome coronavirus 2, Vero C1008, read-out: Inhibition rate to SARS-CoV-2 induced cell death, simultaneous addition, concentration 0.32 μM): 21.3 ± 12.8% | inhibition at 1.6 µM (SARS-CoV-2 [4]; Severe acute respiratory syndrome coronavirus 2, Vero C1008, read-out: Inhibition rate to SARS-CoV-2 induced cell death, simultaneous addition, concentration 1.6 μM): 56 ± 7.66% | inhibition at 8 µM (SARS-CoV-2 [4]; Severe acute respiratory syndrome coronavirus 2, Vero C1008, read-out: Inhibition rate to SARS-CoV-2 induced cell death, simultaneous addition, concentration 8 μM): 89.2 ± 1.29% | inhibition at 40 µM (SARS-CoV-2 [4]; Severe acute respiratory syndrome coronavirus 2, Vero C1008, read-out: Inhibition rate to SARS-CoV-2 induced cell death, simultaneous addition, concentration 40 μM): 95.8 ± 8.77% | inhibition at 200 µM (SARS-CoV-2 [4]; Severe acute respiratory syndrome coronavirus 2, Vero C1008, read-out: Inhibition rate to SARS-CoV-2 induced cell death, simultaneous addition, concentration 200 μM): 98.9 ± 3.47% | IC50 (SARS-CoV-2 [4]; Severe acute respiratory syndrome coronavirus 2, Vero C1008, simultaneous addition of the drug and virus): 1120 ± 52 nM | IC50 (SARS-CoV-2 [4]; [18]): 1160 nM and 1080 nM | TI (CC50/IC50) (SARS-CoV-2 [4]; [18]): > 178.89 | Inhibition rate to SARS-CoV-2 induced cell death (SARS-CoV-2 [4]; [17]): 2.80 ± 2.11% and 9.23 ± 5.11% | Inhibition rate to SARS-CoV-2 induced cell death (SARS-CoV-2 [4]; concentration 0.32 μM, 0.32 µM): 26.39 ± 6.35% | Inhibition rate to SARS-CoV-2 induced cell death (SARS-CoV-2 [4]; concentration 1.6 μM, 1.6 µM): 59.24 ± 13.49% | Inhibition rate to SARS-CoV-2 induced cell death (SARS-CoV-2 [4]; concentration 8 μM, 8 µM): 78.78 ± 9.66% | Inhibition rate to SARS-CoV-2 induced cell death (SARS-CoV-2 [4]; concentration 40 μM, 40 µM): 91.04 ± 3.06% | Inhibition rate to SARS-CoV-2 induced cell death (SARS-CoV-2 [4]; concentration 200 μM, 200 µM): 94.82 ± 0.89%

Nc1c(Br)cc(Br)cc1CN[C@H]1CC[C@H](O)CC1 [ambroxol hydrochloride]
Tracheal excretion amount of phenol red [5]: 0.566 ± 0.201 OD value

Cn1c(=O)c2[nH]cnc2n(C)c1=O [aminophylline]
asthma incubation period, Pre-administration ([6]; 60 mg/kg group, before administration (baseline)): 33.1 ± 9.2 s | asthma incubation period, Post-administration [6, 19]: 123.4 ± 50.3 s | asthma incubation period, extension value (post-pre) [6, 19]: 90.3 ± 51.1 s | Asthma incubation period, pre-administration ([7]; 0.06 g/kg group, before administration (baseline)): 36.9 ± 5.8 s | asthma incubation period, Post-administration [7, 20]: 95.3 ± 37.6 s | asthma incubation period, extension value (post-pre) [7, 20]: 58.4 ± 32.1 s

CC(=O)Oc1ccccc1C(=O)O [aspirin]
Temperature difference (ΔT) ([8]; 1 h after LPS): 0.10 ± 0.34 °C | Temperature difference (ΔT) ([8]; 2 h after LPS): 0.43 ± 0.29 °C | Temperature difference (ΔT) ([8]; 3 h after LPS): 0.42 ± 0.24 °C | Temperature difference (ΔT) ([8]; 4 h after LPS): 0.46 ± 0.34 °C | Temperature difference (ΔT) ([8]; 5 h after LPS): 0.79 ± 0.17 °C | Temperature difference (ΔT) ([8]; 6 h after LPS): 0.88 ± 0.18 °C | Temperature difference (ΔT) ([8]; 7 h after LPS): 0.53 ± 0.24 °C

N[C@@H](CSCC(=O)O)C(=O)O [carbocisteine]
Sputum excretion volume [9]: 18.11 ± 4.32 cm | Sputum excretion volume [10]: 21.56 ± 4.41 cm

C[C@@H]1C[C@H]2[C@@H]3CCC4=CC(=O)C=C[C@]4(C)[C@@]3(F)[C@@H](O)C[C@]2(C)[C@@]1(O)C(=O)CO [dexamethasone]
IL-6 (acute pharyngitis rats): 146.3 ± 10.4 pg/mL | TNF-α (acute pharyngitis rats): 218.2 ± 5.8 pg/mL

CCOC(=O)C1=C[C@@H](OC(CC)CC)[C@H](NC(C)=O)[C@@H](N)C1 [oseltamivir]
Lung index (influenza virus FM1 [11]; dose 27.5 mg/kg intraperitoneal, 7 days): 0.89 ± 0.20 | IL-8 (influenza virus FM1 [11]; [21]): 80.3 ± 15.3 pg/mL | TNF-α (influenza virus FM1 [11]; [21]): 65.2 ± 17.5 pg/mL | Lung index (influenza virus FM1 [12]): 0.95 ± 0.13 | Lung index inhibition rate (influenza virus FM1 [12]): 41.0% | Lung index (influenza virus FM1 [13]): 0.89 ± 0.17

CCN(CC)CCOCCOC(=O)C1(c2ccccc2)CCCC1 [pentoxyverine citrate]
Cough incubation period [14]: 26.3 ± 3.3 s | Frequency of cough [14]: 55.8 ± 14.7 time/2 min | Cough incubation period [15]: 23.3 ± 4.2 s | Frequency of cough [15]: 40.6 ± 12.5 time/2 min
